This is an account of results in PubChem BioAssay (NCI).

Several values for one entry are separate records, joined by “and”; a condition that tells them apart may be missing. Identical values can stand only once.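 Method: 48-hour compound exposure of cells in 96-well plates, five concentrations, linear interpolation of endpoints. Abbreviation: GI50, concentration required for 50% inhibition of growth. TGI: concentration producing complete growth inhibition.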 Some results are limits rather than exact numbers.

What all share (assay): growth of human tumour cells (NCI), 48 h
Assay [1] relates to SNB-19 CNS.
Assay [2] concerns RXF 393 renal.
Assay [3] relates to ACHN renal.
Assay [4] has as its system SF-268 CNS.
For assay [5], the system named is A549 NSCLC.
Assay [6] concerns MALME-3M melanoma.
Assay [7] deals with SK-MEL-5 melanoma.
The test system of assay [8] is MDA-MB-435.
The subject of assay [9] is HS 578T breast.
In assay [10] the test system is PC-3 prostate.

Consider `O=C(OC1CCC2OOC1O2)c1ccc([N+](=O)[O-])cc1` (stereo not drawn), for which the TGI in assay [1], in assay [2], in assay [3], in assay [4], in assay [5] and in assay [6] was above 100 µM in each case. In addition, the TGI in assay [7] is above 100 µM.

Take `N#CCCCCCOCCOCCOCCOCCOCCCCCC#N`: the TGI in assay [1], in assay [2], in [3], in [4], in assay [5] and in assay [6] was above 100 µM in each case. The TGI in [7] is above 100 µM.

`O=C(NCc1cccnc1)C1COc2cc(-c3cc(=O)c4ccccc4o3)ccc2O1` (stereo not drawn): the TGI in assay [1] was above 67.2 µM; in assay [2], above 61.2 µM; in assay [3] it was above 72.9 µM; in assay [4], above 55.2 µM; in assay [5] it was above 100 µM; in assay [6], above 100 µM. The TGI in [7] was above 100 µM.

On to `CC1(Br)CC2OC3(Br)C=CC(C)(O)C2(CC1=O)C3(C)C` (stereo not drawn), for which the TGI in [1], in assay [3], in assay [4], in [5], in assay [6] and in assay [7] was above 100 µM throughout.

On to `CC[C@@]1(O)C(=O)OCc2c1cc1n(c2=O)Cc2cc3cccc([N+](=O)[O-])c3nc2-1`, for which the GI50 in [1] is 0.877 µM; in assay [2] it was 1.83 µM; in assay [3] it was 0.322 µM; in assay [4], 0.794 µM; in assay [5] it was 0.6 µM; in [6], 4.35 µM. For the same compound, the GI50 in assay [7] is 1.18 µM. Besides, the TGI in assay [1] is 31.4 µM; in assay [2], 7.18 µM; in assay [3] it was 3.01 µM; in [4], above 100 µM; in [5] it was 41.5 µM; in [6], above 100 µM. The same compound gave a TGI in assay [7] of 2.74 µM.

`COc1ccc2c(c1)oc(=O)c1cc(OC)ccc12`: the GI50 in assay [1], in [8], in assay [2], in assay [4], in assay [5] and in [6] was above 100 µM throughout. Moreover, the GI50 in [9] is above 100 µM; in assay [10] it was above 100 µM; in assay [7], 65.2 µM. The TGI in assay [1], in assay [8], in assay [2], in assay [4], in [5] and in assay [6] was above 100 µM in each case. Besides, the TGI in assay [9], in [10] and in assay [7] was above 100 µM each time.

Regarding `NC1CCCCC1N.O=[Se]([O-])[O-].[Pt+4]` (stereo not drawn), the GI50 in assay [1] was 1.32 µM; in assay [2] it was 7.33 µM; in [3], 0.653 µM; in assay [4], 0.549 µM; in assay [5], 0.48 µM; in assay [6], 0.986 µM. For the same compound, the GI50 in assay [7] was 0.713 µM. The TGI in [1] was above 100 µM; in [2], 57.1 µM; in assay [3] it was above 52.4 µM; in assay [4], above 76.8 µM; in assay [5], above 61.8 µM; in assay [6], 5.26 µM.

With `COc1ccc(Sc2nc3cc(N)cc(N)c3nc2-c2ccccc2)cc1`, the GI50 was above 100 µM in [1]; above 100 µM in assay [8]; above 100 µM in assay [2]; above 100 µM in assay [4]; 42.4 µM in assay [5]; 33.2 µM in [6]. In addition, the GI50 in assay [9] was above 100 µM; in [10], 6.39 µM; in assay [7], 24 µM. Moreover, the TGI in assay [1] is above 100 µM; in assay [8], above 100 µM; in assay [2] it was above 100 µM; in assay [4], above 100 µM; in [5] it was above 100 µM; in assay [6] it was 95 µM. Besides, the TGI in assay [9], in [10] and in assay [7] was above 100 µM in each case.

Turning to `COC(=O)c1ccccc1N1C(=O)Cc2ccccc2C1=O`, the TGI in assay [1], in assay [2], in assay [3], in assay [4], in [5] and in assay [6] was above 100 µM in each case. In [7], this compound gave a TGI above 100 µM.

As to `COc1cc(C(=O)N2CCN(c3ccccc3)CC2)c2ccccc2n1`, the GI50 is 0.929 µM in assay [1]; 0.0927 µM in assay [2]; 0.382 µM in [3]; 0.2 µM in [4]; 0.101 µM in assay [5]; 0.0484 µM in [6]. The GI50 in assay [9] is 0.0387 µM; in assay [10] it was 0.0846 µM; in assay [7], 0.0541 µM. Further, the TGI in assay [1], in assay [2], in assay [3], in assay [4], in assay [5] and in assay [6] was above 100 µM throughout. Also, the results for the TGI in assay [9], in assay [10] and in assay [7] were 0.387 µM, above 100 µM and 9.42 µM, respectively.

Regarding `Nc1nc(N)c(-c2ccccc2)c(C(=O)Nc2ccccc2)n1`, the TGI in assay [1], in assay [2], in [3], in [4], in assay [5] and in assay [6] was above 100 µM throughout. Besides, the TGI in [7] is above 100 µM.

In the case of `CCNC(=O)Nc1ccc(Oc2ccnc3ccc4c(ccn4C)c23)cc1`, the GI50 was 40.1 µM in assay [1]; above 100 µM in assay [8]; 17.9 µM in [2]; 59.2 µM in [3]; 50.7 µM in [4]; 44.1 µM in assay [5]. Besides, the results for the GI50 in assay [6], in assay [10] and in assay [7] were 38.3 µM, above 100 µM and 75.5 µM, respectively. Also, the TGI in [1], in assay [8], in assay [2], in assay [3], in assay [4] and in assay [5] was above 100 µM in each case. Further, the TGI in [6], in [10] and in [7] was above 100 µM in each case.

With `CONC(C)=O`, the TGI in [1], in assay [8], in assay [3], in [4], in [5] and in [6] was above 100 µM throughout. Besides, the TGI in assay [9], in assay [10] and in assay [7] was above 100 µM each time.

Regarding `COc1ccc2cc(C(=O)/C=C/c3ccc(N(C)C)cc3)ccc2c1`, the GI50 in assay [1] was above 100 µM; in assay [8], 93.1 µM; in assay [2], 41.4 µM; in assay [3], 81.4 µM; in [4], 42.6 µM; in [5], 60.3 µM. For the same compound, the GI50 in assay [6] was above 100 µM; in assay [10] it was above 100 µM; in [7], 36.9 µM. For the same compound, the TGI in [1], in assay [8], in assay [2], in assay [3], in [4] and in assay [5] was above 100 µM throughout. The figures for the TGI in [6], in assay [10] and in assay [7] were above 100 µM, above 100 µM and 72.8 µM, respectively.

`COc1ccc(NC(=O)CC/C(CC(=O)c2ccco2)=N/NC(N)=S)cc1`: the TGI in assay [1], in [3], in assay [4], in assay [5] and in assay [6] was above 100 µM each time.

Turning to `Cc1cc(Nc2ncc3c(n2)N(C)C(=O)N(c2cc(NC(=O)c4cccc(C(F)(F)F)c4)ccc2C)C3)n(C)n1`, the GI50 was 0.234 µM in assay [1]; 0.021 µM in assay [2]; 0.0281 µM in assay [3]; 0.0291 µM in [4]; 0.044 µM in assay [5]; below 0.0124 µM in [6]. In addition, the GI50 in assay [9] is 0.0353 µM; in assay [10] it was 0.105 µM; in assay [7], 0.283 µM. The TGI in [1] was above 46.4 µM; in assay [2], 0.171 µM; in assay [4] it was above 100 µM; in assay [5], 0.417 µM; in assay [6], 0.0489 µM; in [9] it was 0.206 µM. Further, the TGI in assay [10] was above 31.6 µM; in assay [7] it was 7.87 µM.

`N#Cc1c(N)n2c(nc1=Nc1ccc(Cl)cc1)sc1cc(Cl)ccc12`: the GI50 in assay [1] is above 100 µM; in assay [8], 6.18 µM; in assay [3], 9 µM; in [4], 4.08 µM; in [6] it was 6.35 µM and 14.8 µM; in assay [9], 2.98 µM and 1.44 µM. The GI50 was 4.65 µM in assay [10] and 8 µM in assay [7]. In addition, the TGI in [1] was above 100 µM; in [8], above 100 µM; in assay [3], above 100 µM; in [4] it was above 100 µM; in assay [6] it was above 100 µM; in assay [9], 5.92 µM.

`CCCCNC(=O)C1C(=O)N(CCCC)C(=O)/C1=N\N` (stereo not drawn): the TGI in assay [1], in [2], in [3], in assay [4], in [6] and in [7] was above 100 µM throughout.

As to `O=c1[nH]c(=O)c2cc3cc(C4CC(O)C(CO)O4)ccc3cc2[nH]1` (stereo not drawn), the GI50 in [1], in assay [8], in [2], in assay [4], in [5] and in [9] was above 100 µM throughout. In addition, the GI50 in assay [10] and in [7] was above 100 µM throughout. Further, the TGI in [1], in [8], in assay [2], in [4], in assay [5] and in assay [9] was above 100 µM throughout. Also, the TGI in assay [10] and in assay [7] was above 100 µM in each case.

As to `CCOC(=O)C(N=C(c1ccccc1)c1ccccc1)N(C(=O)OC(C)(C)C)C(=O)OC(C)(C)C` (stereo not drawn), the TGI in assay [1], in [2], in assay [3], in assay [4], in assay [5] and in assay [6] was above 100 µM in each case. In addition, in assay [7], the TGI was above 100 µM.

For the compound `CC(N)(/C=C/c1ccccc1)C(=O)O` (stereo not drawn), the TGI in [1], in assay [8], in assay [3], in assay [4], in assay [5] and in assay [6] was above 100 µM each time. In addition, the TGI in [9], in assay [10] and in assay [7] was above 100 µM throughout.

For the compound `NC(N)=NC(N)=Nc1cnccn1`, the TGI in [1], in assay [8], in assay [2], in assay [3], in assay [5] and in assay [6] was above 100 µM throughout. In addition, the TGI in [10] and in assay [7] was above 100 µM each time.

On to `COc1cc2c(cc1OC)CC(=O)Nc1cc(OC)c(OC)cc1CC2`, for which the TGI in assay [1] is above 100 µM; in assay [3] it was above 100 µM; in [4], above 100 µM; in assay [5], above 100 µM; in assay [6], 99 µM; in [7], 71 µM.

With `Nc1nc(Cl)cc(NCC(O)CO)n1` (stereo not drawn), the TGI in [1], in assay [2], in assay [4], in assay [5], in [6] and in assay [7] was above 100 µM throughout.

`COc1cc2c(c(OC)c1OC)-c1ccc(OC)c(=O)cc1[C@@H](NC(C)=O)CC2`: the TGI in [8] was below 0.01 µM; in [3], above 100 µM; in [5], above 100 µM; in assay [9], above 100 µM; in [10] it was above 100 µM. In assay [6], the GI50 is 4.33 µM and 1.35 µM.

On to `CCC(O)C1Cc2c(C)cc3c(c2O1)C(=O)c1ccccc1C3=O` (stereo not drawn), for which the TGI in assay [1] was above 100 µM; in [3], above 100 µM; in assay [4] it was above 100 µM; in assay [5], above 100 µM; in assay [6], 88.6 µM; in assay [7], above 100 µM.
